Tested on: Botrytis cinerea
Test: Filter-paper inhibition zone test against Botrytis cinerea
Format: cell-based
Conditions: PDA, 28° C., 6 days; for inhibition zone diameter: filter paper 1 cm soaked 4 hours; for inhibitory effect on Botrytis cinerea (in words): filter paper test
Description: Test species and reagents: Botrytis cinerea was isolated from the picked blueberries in the laboratory, and chitosan and ascorbic acid were purchased commercially.
Medium and culture conditions: a PDA medium was used, and cultured at 28° C. for 6 days.
Antibacterial effect test: after Botrytis cinerea was activated with the PDA medium, lawn of Botrytis cinerea was picked up and suspended with sterile water to obtain a bacterial suspension. Scraps of filter paper with a diameter of 1 cm were made from a highly absorbent filter paper by using a puncher, and the scraps of filter paper were subjected to dry heat sterilization and soaked in the Galla chinensis extract, a chitosan solution, and an ascorbic acid solution, respectively, and dried for use after 4 hours soaking. The solid PDA medium was melted, poured into a culture dish, cooled and solidified, then 0.1 mL of the bacterial suspension was added and uniformly coated, and then the scraps of filter paper soaked with the above solutions were attached to the bacteria-containing culture dish, and a scrap of filter paper impregnated with sterile water was used as a control. The culture dish treated above was cultured at 28° C. for 6 days, and the diameters of inhibition zones were measured.

| SMILES | inhibition zone diameter [mm] | inhibitory effect on Botrytis cinerea (in words) |
| --- | --- | --- |
| O=C(O)c1cc(O)c(O)c(O)c1 [gallic acid] | 0.00 | no inhibitory effect |
| O=C1O[C@H]([C@@H](O)CO)C(O)=C1O [ascorbic acid] | 0.00 | no inhibitory effect |
